From publication PMC9241302, “Identification of 2-(4-N,N-Dimethylaminophenyl)-5-methyl-1-phenethyl-1H-benzimidazole targeting HIV-1 CA capsid protein and inhibiting HIV-1 replication in cellulo” (BMC Pharmacology & Toxicology, 2022)
Read-outs that look alike come from different tables or passages of the source.

Columns and labels:
HIV-1 CA = HIV-1 CA (Human immunodeficiency virus type 1 group M subtype B, UniProt P12493); assay: HIV-1 CA assembly inhibition assay (absorbance at 340 nm); assay type: biochemical; design: the capsid protein (CA) of the Gag polyprotein; made in house; host or cells: Escherichia coli BL21(DE3) pLysS
Method: The CA assembly assay was performed in a final volume of 70 µL in 384-well plates, with a final concentration of 5 mg/mL of purified recombinant HIV-1 CA in Phosphate/NaCl Buffer (NaH2PO4/Na2HPO4 50 mM, NaCl 100 mM, pH 7.4), as described for FIV CA [27, 31]. Absorbance was measured at 340 nm every 30 s in a multiplate reader VarioskanTM Flash Multimode Reader (Thermo Scientific, MA, US) at 37 °C for 30 min. The compounds were tested at a fixed initial dose of 25 or 50 µM (at 0.5% DMSO [v/v]) by adding 1 µL of the concentrated ligand to the well before starting the measurement. The controls were CA at 5 mg/mL in only 0.5% DMSO [v/v] and CA without DMSO. The criteria to select active compounds were the observation of at least 50% of assembly inhibition at these doses, based on the reduction of the OD value at 340 nm at the plateau value compared to the controls.

HIV-1 NL4-3 Ba-L = assay: microbe, parasite or virus in culture; assay type: cell-based
Method: Compounds were first dissolved in DMSO to reach a concentration of 20 mM. They were further diluted to a 200 µM working stock and then further diluted to reach a starting concentration of 10 µM in the culture plate. U87-CD4-CCR5 cells were seeded in quadruplicate at 4000 cells/well in a final volume of 100 µL. The next day, 24 µL of the compound was added in serial 1:2 dilutions to the cells. Two hours later, 25 µL of infectious virus (NL4-3 Ba-L) were added to the cells with a TCID50 of 250. AZT at 10 µM was included as an inhibition control. The medium was replenished in the presence of compounds once every 3 to 4 days. The supernatant was collected every 3–4 days and analyzed for virus production by an in-house p24 capture ELISA. IC50 was calculated using “Quest Graph™ IC50 Calculator” (AAT Bioquest, Inc., https://www.aatbio.com/tools/ic50-calculator). Cytotoxicity of the compound was tested on U87-CD4-CCR5 cells in parallel by MTT assay (at the same protocol as in Sect. 3.5 but after 11 days of incubation))[39].

[1] = Cytotoxicity in human macrophages (PMA-stimulated THP-1 monocytes, MTT); assay type: cell-based; conditions: PMA-stimulated THP-1 monocytes (human macrophages), 48hs
Method: (§1) TZM-bl cells, U87-CD4-CCR5, murine macrophages (J774.1), and THP-1 monocytes (ATCC®TIB-202™) were grown following ATCC recommendations. Cells were seeded in a 96-well plate (10^4 cells in 200 µL culture medium) and incubated at 37 °C in a 5% CO2 atmosphere for 48 h, to allow cell adhesion before drug testing. For stimulation (THP-1 monocytes), cells were incubated with 100 nM of phorbol 12-myristate 13-acetate (PMA) for 48 h. […] A vehicle for control (0.4% DMSO) and negative wells (cells in medium) was used in each test. […] After removing the medium, formazan crystals were dissolved in 180 µL of DMSO and 20µL of MTT buffer (0.1 M glycine, 0.1 M NaCl, 0.5 mM EDTA, pH 10.5), and the absorbance at 560 nm was measured. […] Tests were performed in triplicate, in two independent experiments.

[2] = Liver fraction stability (thin-layer chromatography); assay type: in vitro ADME, rat
Method: For the determination of liver fraction stability, rat liver microsomal and cytosolic proteins were used (MOLTOX™ manufactures products, North Carolina, US). Rat liver microsomal and cytosolic proteins were used according to the manufacturer’s recommendations and the methodology previously described. […] The final concentration of 696 in the aqueous medium was 100 µM and was prepared from a stock solution in DMSO. The solutions were further homogenized and incubated at 37 °C for 1 to 4 h following the OECD recommendation for drug development. After that, thin-layer chromatography of ethyl acetate extracts was performed to evaluate the presence of metabolites.

human red blood cells = assay: Red blood cell lysis assay; assay type: cell-based; conditions: Erythrocyte, 24hs
Method: Human blood (blood discarded from the blood bank) collected in sodium citrate solution (3.8%) was centrifuged at 200 × g for 10 min at 4 °C. The plasma supernatant was removed and erythrocytes were suspended in ice-cold PBS. The cells were again centrifuged at 200 × g for 10 min at 4 °C. This procedure was repeated two more times to ensure the removal of any released hemoglobin. Once the supernatant was removed after the last wash, the cells were suspended in PBS to 2% w/v red blood cell solution. […] Ten replicates for each concentration were done and incubated for 24 h at 37 °C before analysis. Complete hemolysis was attained using neat water yielding the 100% control value (positive control). The release of hemoglobin into the supernatant was determined spectrophotometrically at 405 nm using a multiplate reader VarioskanTM Flash Multimode Reader (Thermo Scientific, MA, US). Results are expressed as the percentage of total hemoglobin released in the presence of the compounds. This percentage was calculated using the equation percentage hemolysis (%) = [(A1 − A0)/(Aw)] × 100, where A1 is the absorbance at 405 nm of the test sample at t = 24 h, A0 is the absorbance at 405 nm of the test sample at t = 0 h, and Aw is the absorbance at 405 nm of the positive control (water) at t = 24 h. […] The experiments were done in quintuplicate. AmpB was used as a positive control.

[3] = Cytotoxicity in TZM-bl cells (MTT); assay type: cell-based, human; conditions: human, TZM-bl cells; 48hs
Method: as §1

TZM-bl cells = assay: Cytotoxicity in TZM-bl cells (MTT); assay type: cell-based, human; conditions: Homo sapiens, TZM-bl; Table 1, 696, 48hs
Method: as §1

Cc1ccc2c(c1)nc(-c1ccc(N(C)C)cc1)n2CCc1ccccc1 [compound 696, 2-(4-N,N-dimethylaminophenyl)-5-methyl-1-phenethyl-1H-benzimidazole]
Effect in p24 multimerization in vitro (HIV-1 CA): inhibited
interference with the assembly of HIV-1 CA in vitro (HIV-1 CA; compounds at 25 or 50 µM, CA 5 mg/mL, 30 min): interference with the assembly
Effect in p24 multimerization in vitro (HIV-1 CA; listed as C00002): inhibition
EC50/IC50 (HIV-1 NL4-3 Ba-L): > 21
IC50 (HIV-1 NL4-3 Ba-L; Human immunodeficiency virus 1, U87/CD4/CCR5, 264 h, read-out: IC50, inhibition of HIV-1 replication): 3 µM
IC50 (HIV-1 NL4-3 Ba-L; Human immunodeficiency virus 1, U87/CD4/CCR5, read-out: IC50 in U87 (μM)): 2.3 ± 0.6 µM
inhibition of HIV-1 replication (in words) (HIV-1 NL4-3 Ba-L; U87-CD4-CCR5 cells, serial 1:2 dilutions from 10 µM): clear dose–response inhibition
inhibition of HIV-1 replication (HIV-1 NL4-3 Ba-L; U87-CD4-CCR5 cells, two highest concentrations tested, after 11 days): more than 80%
selective activity between mammalian cells and antiviral activity (HIV-1 NL4-3 Ba-L; cytotoxicity EC50 vs antiviral IC50): at least 10 times
EC50 at 48 h [1]: > 100 µM
metabolic stability (in words) [2]: high metabolic stability
stability under microsomal and cytosolic fraction derived from rat liver ([2]; 100 µM, 37 °C, TLC, absence of new metabolites): stable for 4 h
half-life at 100 µM ([2]; rat, rat liver microsomes, read-out: Metabolic stability, half-life (t1/2)): > 4 h
EC50 (human red blood cells): > 100 µM
EC50 at 48 h [3]: > 50 µM
EC50 (TZM-bl cells): > 25 µM
